This data set is described as follows: activity coefficient (dimensionless); of the first substance listed, at infinite dilution; xn = mol fraction of the nth substance listed. Particulars: 101 kPa, Liquid, Chromatography, x1 = 0.

± gives the expanded uncertainty stated by the source.

As for `CC(C)CO` [2-methyl-1-propanol] + CCCCCCCCCCn1cc[n+](CCCCCCCCCC)c1C.O=S(=O)([N-]S(=O)(=O)C(F)(F)F)C(F)(F)F, the activity coefficient runs as follows: (323.1 K) 1.3 ± 0.084; (333.15 K) 1.17 ± 0.075; (343.15 K) 1.06 ± 0.067.
On to `CC(C)O` [propan-2-ol] + CCCCCCCCCCn1cc[n+](CCCCCCCCCC)c1C.O=S(=O)([N-]S(=O)(=O)C(F)(F)F)C(F)(F)F, for which the activity coefficient is 1.27 ± 0.082 (323.1 K), 1.14 ± 0.073 (333.15 K) and 1.03 ± 0.065 (343.15 K).
On the same counts, the results for `C1CCCCC1` [cyclohexane] + CCCCCCCCCCn1cc[n+](CCCCCCCCCC)c1C.O=S(=O)([N-]S(=O)(=O)C(F)(F)F)C(F)(F)F are 1.32 ± 0.085, 1.28 ± 0.083 and 1.26 ± 0.081.

(Values after the NIST ThermoML archive (doi:10.1021/je200195q).)
